# Data: patent US11981918B2, “Differentiation technique to generate dopaminergic neurons from induced pluripotent stem cells” (CEDARS-SINAI MEDICAL CENTER, priority 2018, dated 2024)
# “Also recorded” adds a separate entry of the source. Where a SMILES comes first, the peptide text is derived from it. The star is where a group is joined. Cbz = O=C(OCc1ccccc1)*
# Legend:
# α-Synuclein [1] = assay: α-Synuclein protein in iPSC-derived DaNs treated with lysosomal agonists (western blot); type: cell-based, human; conditions: for amount of α-Synuclein protein: DaNs from control lines; for amount of α-Synuclein protein / synuclein levels: treated for 3 days starting at day 27; for synuclein levels: EOSPD DaNs; for α-Synuclein levels: both control and PD DaNs, all treated lines
# Source text: FIG. 5: Treatment with lysosomal agonists and Elevated p-PKCa in PD lines. […] Baseline levels of p-PKCa in d30 DaNs (b). Day 30 DaNs treated with PEP from multiple PD and control lines(c). Timecourse of PEP treatment and synuclein levels (d) Timecourse of PEP treatment SNCA (e) and TH (f) gene expression.
# To test if the Inventors could reduce synuclein levels in our EOSPD DANs through activation of lysosomal specific pathways, the Inventors selected 3 lysosomal agonists. […] Starting at day 27, DaNs were treated for 3 days with the above lysosomal agonists.
# PC12 cell model = conditions: cited from earlier work
# neurons in Brain-Chip = type: cell-based, human
# P53 = P53 level in DaN cultures under proteasome inhibition; type: cell-based, human; conditions: 24 hrs
# Source text: (§1) […]. Western blot showing synuclein degradation under 24 hrs of MG132 proteosomal inhibitor (e). Western blot showing reduced LAMP1 protein in PD DaNs (f). […]. Data were normalized to 02iCTR for each differentiation and presented as a fold change (g). NIRF detection of oxidized dopamine from D30 DaN lysates (h)
# (§2) Protein degradation can be largely divided into protosomal and autophagy/lysosomal degradation pathways.
# α-Synuclein [2] = assay: α-Synuclein level in DaN cultures under proteasome inhibition; type: cell-based, human; conditions: 24 hrs
# Source text: as §1, §2
# α-Synuclein [3] = conditions: cited from earlier work
# synuclein = assay: In vivo synuclein in striatum after injection of PEP into the ventricles of WT mice; set-up: species or system mouse; conditions: WT mice, 0.3, 3 and 30 μM injected into the ventricles, 1 and 5 days post injection
# SNCA = SNCA gene expression timecourse of PEP treatment in DaNs; type: cell-based, human; conditions: 4 hours after PEP treatment
# Description: (§3) FIG. 5: Treatment with lysosomal agonists and Elevated p-PKCa in PD lines. Western blot and relative band quantifications of d30 DaNs treated with indicated compounds for 72 hours (a). Baseline levels of p-PKCa in d30 DaNs (b). Day 30 DaNs treated with PEP from multiple PD and control lines(c). Timecourse of PEP treatment and synuclein levels (d) Timecourse of PEP treatment SNCA (e) and TH (f) gene expression. Confirmation of elevated synuclein and p-PKCa in addition control and PD lines (g)
# (§4) The elevated phosphorylation of PKCa was absent in the undifferentiated iPSCs and no clear pattern was evident in peripheral blood from the individual patients indicating specificity to the differentiated DaNs. […].
# LAMP1 = LAMP1 protein in DaNs after PEP treatment; type: cell-based, human; conditions: PD cells
# TH enzyme = TH enzyme amount in iPSC-derived DaNs treated with lysosomal agonists (western blot); type: cell-based, human; conditions: both control and PD DaNs, treated for 3 days
# PKC C1 domains = conditions: cited from earlier work
# [4] = system: leukemic cell lines and primary AML cells; conditions: by activating PKCδ and sustained activation of ERK1/2; cited from earlier work
# [5] = system: various cancer cell lines and primary acute myeloid leukaemia (AML) cells; conditions: cited from earlier work
# p-PKCa = assay: Phosphorylated PKC alpha in iPSC-derived DaNs after PEP005 treatment (western blot); type: cell-based, human
# cleaved caspase 3 (CC3) = assay: Cleaved caspase 3 in DaNs after PEP treatment; type: cell-based, human; conditions: DaNs on drug treatment, most easily observed in PD cells; listed as PEP
# Source text: as §4
# (§5) It is likely that the toxicity of PEP is more specific to highly proliferative cells whereas our differentiated neurons are largely post mitotoic.
# DaN cultures = type: cell-based, human; conditions: DaN cultures on drug treatment
# Source text: as §5
# LC3 = LC3 protein in DaNs after PEP treatment; type: cell-based, human; conditions: PD cells
# TH [6] = assay: TH gene expression timecourse of PEP treatment in DaNs; type: cell-based, human; conditions: roughly 8 hours after initial exposure
# Description: as §3, §4
# TH [7] = assay: In vivo TH in striatum after injection of PEP into the ventricles of WT mice; set-up: species or system mouse; conditions: WT mice, 0.3, 3 and 30 μM injected into the ventricles, 1 and 5 days post injection
# [8] = time-course, control and PD DaNs
smiles,measurement,setting,value
C=CCNc1ncnc2ccc(Br)cc12 [SMER28],amount of α-Synuclein protein,α-Synuclein [1],significantly reduced
same,synuclein levels,α-Synuclein [1],only the PKC agonist PEP005 substantially reduced synuclein levels
same,Huntington and α-Synuclein aggregates,PC12 cell model,reduce
NC1=N[C@H](O)[C@H]2[C@H]3O[C@]4(O)O[C@@H]([C@@H](O)[C@@]2(N1)[C@@H]4O)[C@]3(O)CO [tetrodotoxin],neuron activity (calcium imaging),neurons in Brain-Chip,Neuron activity ablated
CC(C)C[C@@H](C=O)NC(=O)[C@H](CC(C)C)NC(=O)[C@H](CC(C)C)NC(=O)OCc1ccccc1 [MG132] (Cbz-Leu-Leu-Leu-aldehyde),P53 level,P53,accumulation of P53
same,α-Synuclein levels,α-Synuclein [2],no substantial change
OC[C@H]1O[C@H](O[C@H]2O[C@H](CO)[C@@H](O)[C@H](O)[C@H]2O)[C@H](O)[C@@H](O)[C@@H]1O [Trehalose],clearance of α-Synuclein,α-Synuclein [3],promote clearance
same,amount of α-Synuclein protein,α-Synuclein [1],not Trehalose significantly reduced
same,synuclein levels,α-Synuclein [1],only the PKC agonist PEP005 substantially reduced synuclein levels
"C/C=C(/C)C(=O)O[C@H]1C(C)=C[C@]23C(=O)[C@@H](C=C(CO)[C@@H](O)[C@]12O)[C@H]1[C@@H](C[C@H]3C)C1(C)C [PEP005, ingenol-3-angelate]",synuclein in mouse striatum,synuclein,Reduction of synuclein
same,SNCA gene expression,SNCA,downregulated
same,LAMP1 response,LAMP1,does not appear to be replicated
same,LAMP1 response,LAMP1; listed as PEP,neither LAMP1 nor LC3 respond
same,amount of TH enzyme,TH enzyme,increased amount of TH enzyme
same,amount of TH enzyme,TH enzyme; listed as PEP,increase in the amount of TH
same,selectivity for individual PKC isoforms,PKC C1 domains,no selectivity
same,apoptosis,[4],induces apoptosis
same,proliferation,[5],inhibiting proliferation
same,amount of α-Synuclein protein,α-Synuclein [1],significantly reduced
same,synuclein levels,α-Synuclein [1],substantially reduced
same,α-Synuclein levels,α-Synuclein [1],reduced
same,α-Synuclein levels,α-Synuclein [1]; listed as PEP,reduced synuclein in all treated lines
same,time in which α-Synuclein is degraded in response to drug treatment,α-Synuclein [1]; [8],≤ 24 h
same,phosphorylation of PKCa,"p-PKCa; 1 μM for 3 days, DaNs from all iPSC lines",clearly ablated
same,PKC alpha phosphorylation signal,"p-PKCa; control and PD DaNs, at endpoint of 72 hours treatment",completely ablating this signal
same,time in which p-PKCa is degraded in response to drug treatment,p-PKCa; [8],≤ 24 h
same,cleaved (active) caspase 3,cleaved caspase 3 (CC3),marked decrease; also recorded: decrease in the amount of active caspase 3
same,LDH,DaN cultures,nor do the Inventors see an increase in LDH
same,LC3 response,LC3,neither LAMP1 nor LC3 respond
same,TH gene expression,TH [6],upregulated
same,TH in mouse striatum,TH [7],increase in TH
